Data published in US8637494B2, “Method of achieving normoglycemia in diabetics by administration of Withaferin A” (priority 2010, dated 2014).

Legend:
[1] = tested on: MCP-1 and IP-10 in human islets; experiment: Fluorescent immunohistochemistry, mean fluorescent intensity of MCP-1 and IP-10; assay type: cell-based; settings: cytokine cocktail + 0.5 μg/mL Withaferin A, 24 hours
Experimental: Islet sections were captured under similar conditions and mean fluorescent intensity values were measured. […] Significant differences between mean values groups as determined by Turkey-Kramer post-hoc tests are indicated by an asterisk (*p<0.05) above bars;
Immunohistochemistry: Engrafted livers and cytokine treated islets were preserved in 10% formalin, embedded in paraffin and sectioned at 5 μm. Tissue sections were deparaffinized in xylene (twice for 5 minutes) and series of ethanol gradients (100%, 95%, 90%, 80%, 70%, and 50% ethanol diluted with water for 2 minutes each). Next, sections were heated at 98° C. in 1× Antigen Retrieval Reagent-Universal (R&D Systems) for 20 minutes. Then tissue samples were blocked for non-specific bonding by AquaBlock (EastCoast Bio) for 1 hour at room temperature. Next the primary antibody, diluted in a background reducing antibody diluent, was applied overnight at 4° C. Next, the appropriate fluorescently conjugated secondary antibody (diluted 1000×) was applied for 1 hour at room temperature protected from light. […] Micrographs were imported to Image J, converted to 8-bit grayscale photos, then the mean fluorescence intensity was measured by limiting the region of interest to a single islet via the thresholding function of the program. Mean fluorescent intensity is calculated at the integrated density divided by the area in the region of interest.

[2] = tested on: inflammatory cytokines and chemokines (iNOS, IL-1β, RANTES, MIG, IP-10) in human islets; settings: human islets exposed to inflammatory cytokines, qPCR; cited from earlier work
IP-10 = experiment: Flow cytometry, intracellular IP-10 in islets; assay type: cell-based, human; settings: islets treated with cytokine mix + Withaferin A (untreated 4214.15, cytokine mix 18024.08)
Text: (§1) The IP-10 expression level was examined by flow cytometry. After treatment, islets were fixed, permeablized and aliquoted to three tubes staining with anti-IP10.

islets [3] = experiment: TUNEL assay, FITC positive population, dose effect study
Experimental: The present inventors conducted a dose effect study of Withaferin A on islets. […] The viability and apoptosis test of islet with four different concentrations of Withaferin A (0.5 μg/mL, 1 μg/mL, 2 μg/mL and 4 μg/mL) was examined. FDA/PI staining was used to determine the islet viability.

[4] = tested on: RANTES, IP10, MIG, IL-1β, iNOS expression in human islets; experiment: RT-PCR single gene primer assays, dose and time course in human islets; assay type: cell-based
Experimental: Cytokine & Withaferin A Treatment: After isolation and overnight culture, islets were subjected to an in-vitro model of inflammatory conditions with a cytokine cocktail of the species specific recombinant proteins (1,000 U/mL TNF-α, 1,000 U/mL IFN-γ, and 50 U/mL IL-1β dissolved in human or mouse islet culture media). […] Control islets were cultured in the appropriate culture media lacking both the cytokine cocktail and Withaferin A. All islets were cultured in a humidified incubation chamber at 37° C. with 5% CO2 for the indicated time.

[5] = tested on: MIN6, a mouse beta cell line; experiment: RT-PCR gene expression in MIN6 cells; assay type: cell-based
Experimental: RT-PCR Inflammation Array and Primer Assays: After proper time of treatment, islets were harvested and lysed in lysis buffer (Stratagene, La Jolla Calif.). RNA was purified by Absolutely RNA Miniprep kit (Stratagene) and then reverse transcribed into cDNA by RT2 Firststrand kit (SABiosciences, Frederick Md.). […] The RT-PCR reaction was run in Stratagene MX3000 with following program: 95° C., 10 minutes; 40 cycles of (95° C., 15 second; and 60° C., 60 second). Cycle threshold data was uploaded to a Web-Based PCR Array Data Analysis on SABiociences website and fold change compared to control was analyzed.
Procedure for single gene primer assays was the same except primers of particular genes other than the whole array plate were used.

[6] = IPGTT on day 30 post transplant; assay type: in vivo, C57BL/6 mice
Experimental: Intraperitoneal glucose tolerance test was performed on day 30 post transplant to assess glycemic control of Withaferin A-treated and vehicle-treated (11E) mice; also naïve and STZ-induced diabetic mice were challenged with glucose for comparison. After 12-14 hours of fasting, mice were injected with a 5% glucose solution (1 mg/kg body weight) and blood glucose levels were monitored at 0, 30, and 120 minutes afterwards.
IPGTT: Naïve, transplanted, and STZ induced diabetic mice were used to perform an intraperitoneal glucose tolerance test. The mouse's food was removed for 12-14 hours, then an injection of glucose (1 mg/kg body weight, 5% glucose solution in DPBS) was administered intraperitoneally. Blood glucose was monitored with Accu-Chek at 0, 30, and 120 minutes after the injection.
To evaluate the islet graft function, IPGTT was performed on cured mice and vehicle treated mice on day 30. To control for the pattern in islet function, naïve and STZ-induced diabetic mice were tested as well. After 12 to 14 hours of fasting, mice were injected with a 5% glucose solution (2 mg/kg body weight) and blood sugar levels were measured at zero, thirty, and one hundred twenty minutes after the injection.

islets [7] = experiment: FDA/PI staining islet viability, dose effect study; settings: 48 hours culture
Experimental: Viability was assessed using fluorescein diacetate (FDA) and propidium iodide (PI). Islets used for the studies were 80 to 90% viable, with a purity of 60 to 85%. Human islets used were handpicked to greater than 95% purity. Islets were cultured with CMRL-based human islet culture media containing 0.1% BSA with Kanamycin at 37° C.
The viability and apoptosis test of islet with four different concentrations of Withaferin A (0.5 μg/mL, 1 μg/mL, 2 μg/mL and 4 μg/mL) was examined. FDA/PI staining was used to determine the islet viability.

[8] = tested on: inflammatory gene expression in human islets; experiment: RT-PCR human inflammation gene array, cytokine-treated islets; assay type: cell-based
Experimental: (§2) Cytokine & Withaferin A Treatment: After isolation and overnight culture, islets were subjected to an in-vitro model of inflammatory conditions with a cytokine cocktail of the species specific recombinant proteins (1,000 U/mL TNF-α, 1,000 U/mL IFN-γ, and 50 U/mL IL-1β dissolved in human or mouse islet culture media). Islets were treated by Withaferin A co-culture at concentrations ranging from 0.25 to 2.0 μg/mL. Control islets were cultured in the appropriate culture media lacking both the cytokine cocktail and Withaferin A. All islets were cultured in a humidified incubation chamber at 37° C. with 5% CO2 for the indicated time.

mouse islets [9] = experiment: Viability determination by Hoechst 342/PI, mouse islets; assay type: cell-based; settings: for viability of mouse islets exposed to cytokines: 24 hours (cytokines 78.1±11.6%, control 93.3±2.9%)
Experimental: (§3) FIGS. 5A-5D show the optimal Withaferin A dosing is found without toxicity to islets: Human (5A and 5B) and mouse (5C and 5D) islets were cultured with Withaferin A. Samples were taken at 24 and 48 hours and stained with Hoechst 342 (all nuclei) and propidium iodide (necrotic nuclei). The percent viability was determined as the PI^+ area subtracted from the total area (Hoe342 stained). The optimal Withaferin A dose was determined to be 1.0 μg/mL Withaferin A for human islets (5A) and 0.5 μg/mL for mouse islets (5C). Asterisks above bars indicate statistically significant differences in mean values (*p<0.05 for 48 h and **p<0.001 for 24 and 48 hours) between controls and islets exposed to Withaferin A based on two-tailed Student's t test; N=10;
Mouse Isolation: Islets were isolated from male inbred B6 […] mice (C57BL/6N Inbred Mice, Harlan Labs). Collagenase type V (Sigma, C9263) (2 mg/mL) was injected through the common bile duct into the pancreas. Mouse pancreata were digested by incubation at 37° C. for 28 minutes. After washing, the islets were purified with a discontinuous Ficoll based gradient (1.085 g/mL, 1.077 g/mL, and Cap of DMEM) and centrifugation at 1000 rpm for 10 minutes. Purified islets were further purified in a 65 mm dish in DMEM by removing acinar cells to a purity of greater than 95%. Islets were cultured in DMEM supplemented with Kanamycin and 0.1% BSA, mouse islet culture media.
(§4) Viability Determination by Hoechst 342/PI: For immediate in vitro determination of necrosis, islets were incubated with Hoechst 342 (10 μg/mL) and propidium iodide (20 μg/mL) for 10 minutes at 37° C. before imaging via fluorescent microscopy. Fluorescent microsgraphs were merged in Image J (NIH Bethesda, Md.) and the propidium iodide positive area was divided by the Hoechst 342 positive area to provide a calculation of islet viability.

mouse islets [10] = experiment: Glucose stimulated static incubation assay, mouse islets
Experimental: as §2
(§5) Glucose Stimulated Static Incubation Assay: Islets in each experimental condition were incubated with low (2.8 mM) and then high (20.0 mM) concentrations of glucose solution in Functionality/Viability Medium CMRL1066 (Mediatech, Inc. Manassas, Va.) for 1 hour each at 37° C. Insulin concentrations were measured by an insulin ELISA kit (ALPCO Diagnostics, Salem, N.H.). The insulin secretion levels were normalized by total DNA of the stimulated islets. Studies were performed in triplicate with 10 islets in each group.

human islets [11] = experiment: Viability determination by Hoechst 342/PI, human islets; assay type: cell-based; settings: for viability of human islets exposed to cytokines: 24 hours (cytokines 85.8±3.9%, control 93.5±3.2%)
Experimental: as §3, §4

[12] = tested on: G-CSF, IL-2, IL-6, IL-8, IP-10, MCP-1, IL-1α, TNF-α, MIP-1α, MIP-1β secreted by human islets; experiment: Secreted inflammatory cytokines and chemokines (Luminex); assay type: cell-based; settings: 96 hours
Experimental: Supernatant was collected and analyzed in duplicate with Millipore's human cytokine detection kit in the Luminex 200®. Results were standardized to the number of islets. Graphical representations are expressed as means±STD. Significant differences between mean values groups as determined by Turkey-Kramer post-hoc tests are indicated by an asterisk (*p<0.05) above bars;
Measurement of Secreted Inflammatory Cytokines and Chemokines: Fifty human islets were cultured in human islet culture media for 96 hours with the cytokine and Withaferin A treatment. Secretion of proinflammatory cytokines was determined by measuring cell culture supernatant in a Luminex 200 with a human inflammatory cytokine MagPlex kit (Millipore, Billerica, Mass.). The bead assay was performed according to the manufacturer's instructions with samples in duplicate.
In this study cell culture supernatants from human islets exposed to cytokines and Withaferin A was evaluated by a multiplex bead assay using Luminex® technology. The cell culture supernatant from which the samples were taken for Luminex analysis contained fifty, pure, hand-picked human islets, which had been cultured at 22° C. for over a week to decrease resident macrophage numbers that might interfere (N=10).

[13] = tested on: NF-κB p65 in human β cells; experiment: p65 translocation assay; assay type: cell-based; settings: 24 hours (control 21.6±5.3%, cytokines 41.3±13.5%)
Experimental: Graphical representations (7B) are expressed as means±STD. Asterisks above bars indicate significant differences in mean values (*p<0.05) as determined by Turkey-Kramer post-hoc tests;
p65 Translocation Assay: NF-κB, p65, translocation was determined by overlap of Alexa-488 labeled NF-κB and DAPI stained nuclei, pseudocolored red by Image J for visualization. […] Nuclei positive for activated NF-κB translocation was counted in insulin positive cells and divided by the total number of beta-cells.
To determine whether NF-κB has been activated and moved to the nucleus, immunohistochemistry was performed to locate the p65 portion of NF-κB as described elsewhere.^12 All nuclei in insulin positive human β cells were counted and when NF-κB was stained in the nucleus it was classified NF-κB^+ and nuclei without NF-κB were classified NF-κB^− (FIG. 7A). Percent NF-κB activation was measured at 24 hours after culture with the cytokine cocktail and Withaferin A (FIG. 7B).

MCP-1 and IP-10 = experiment: Immunohistochemical staining of MCP-1 and IP-10 (HRP/DAB); assay type: cell-based, human; settings: Withaferin A and cytokine treatment vs cytokine treatment
Experimental: Immunohistochemical Staining: After culture, islets were embedded in OCT compound, flash frozen in liquid nitrogen and stored at −80° C. until sectioning. Nine μm sections of embedded islets were taken and stained for IP-10 (1:100), MCP-1 (1:20), or insulin (1:75) using standard immunohistochemical techniques. Staining was visualized using an HRP-conjugated secondary antibody conjugated with diaminobenzidine (DAB). Samples were then counterstained with hematoxylin, dehydrated and mounted. Images were acquired.
as §1

human islets [14] = experiment: Glucose stimulated static incubation assay, human islets; settings: for stimulation index, human islets: 24 hours, no cytokines (control 3.11±1.53)
Experimental: as §2, §5

[15] = In vivo intraportal syngeneic islet transplant in STZ diabetic mice; design: species or system C57BL/6 mice
Experimental: Intraperitoneal glucose tolerance test was performed on day 30 post transplant to assess glycemic control of Withaferin A-treated and vehicle-treated (11E) mice; also naïve and STZ-induced diabetic mice were challenged with glucose for comparison. After 12-14 hours of fasting, mice were injected with a 5% glucose solution (1 mg/kg body weight) and blood glucose levels were monitored at 0, 30, and 120 minutes afterwards. […] After thirty days, hepatectomy of recipient mice was performed and the liver was fixed in formalin, embedded in paraffin and stained for insulin (11F) and H&E (11G).
In-vivo Intraportal Transplant: Diabetes was induced in by injecting streptozomycin (STZ 180 mg/kg, 9 mg/mL dissolved in DPBS) into the tail vein. Accu-Chek Aviva® (Roche Diagnostics, Indianapolis, Ind.) was used to monitor blood glucose from the tail vein, and mice were considered diabetic, when their blood glucose was measured as greater than 350 dg/mL for two days in a row. Mice were anesthetized with avertin (20 mg/mL, 0.5 mL/mouse), then two hundred islets were injected into the portal vein by puncturing the portal vein through the pancreas with a 27 gauge, hypodermic needle attached to a glass syringe. The peritoneum was first closed with 5-0 black silk sutures, and before sealing this closure, Withaferin A (25 ug, 0.5 mL/mouse) or vehicle (DPBS) was injected into the peritoneal space. […]
To determine only the anti-inflammatory effects of Withaferin A on islet transplantation, a syngeneic model was used. […] It was determined that 400 islets are required for successful transplantation into the portal vein of the liver for mice.
Daily intraperitoneal injections of Withaferin A (25 μg, 0.5 mL/mouse) for seven days post-transplant beginning immediately after islet infusion were performed on six mice. […] After 12 to 14 hours of fasting, mice were injected with a 5% glucose solution (2 mg/kg body weight) and blood sugar levels were measured at zero, thirty, and one hundred twenty minutes after the injection.

[16] = tested on: IκB in human islets and β-cell lines; experiment: Western blotting of IκB after cytokine cocktail; assay type: cell-based; settings: cytokines 20 min
Experimental: Graphical representations (6B) are expressed as means±STD. Asterisks above bars indicate statistically significant differences in mean values (*p<0.05, **p<0.01, ***p<0.001) between treatments and controls (black bars) for each cell type based on two-tailed Student's t test;
Western Blotting: Cells were treated with cytokines for 20 min, then harvested in lysis buffer containing 50 mM HEPES, pH 7.5, 150 mM NaCl, 1% Triton X-100, 0.2 mg/mL phenylmethylsulfonyl fluoride (PMSF), 0.1 M NaF, 2 mM Na3VO4, 10 μg/mL aprotinin, 5 μg/mL pepstatin A, and 5 μg/mL leupeptin. Proteins were subjected to SDS/polyacrylamide gel electrophoresis and electrotransferred to nitrocellulose membranes. Membranes were blocked with 5% milk in Tris-buffered saline containing 0.1% Tween-20 (TBST) pH 7.4 for 2 hours, incubated with primary antibody for 1 hour at 4° C., and washed three times with TBST. Primary antibodies were IkB-α (C-21) (Santa Cruz) and ERK1/2 as described.^21 Membranes were then incubated with secondary antibodies conjugated to DyLight 680 and 800 fluorescent dyes (Cell Signaling) to detect proteins using an ODYSSEY Infrared Imaging System (LI-COR).

human β cells = experiment: TUNEL assay on sections, cytokine mediated beta cell apoptosis; assay type: cell-based; settings: cytokine + 1.0 μg/mL, twenty four hours, vs control
Experimental: Islets were protected from cytokine damage by Withaferin A at both time points. Islet potency was assessed by stimulation index after 24 hours. […] Graphical representations (10E-10G) are expressed as means±STD. Significant differences between mean values groups as determined by Turkey-Kramer post-hoc tests are indicated by an asterisk (*p<0.05) above bars; and
TUNEL Assay: The TUNEL assay was performed with ApopTag® fluorescein in situ apoptosis detection kit. After deparaffinization of samples, antigen retrieval was performed with proteinase K and insulin staining was performed as described previously. Next, digoxigenin labeled nucleotides were added to DNA fragments by the enzyme terminal deoxynucelotidyl transferase (TdT) by incubation at 37° C. for 1 hour. Fluorescein labeled anti-digoxigenin antibodies are bound to the digoxigenin by incubation at room temperature for 30 minutes. Lastly DAPI is stained as described above, and slides are mounted with VecataShield and visualized with fluorescent microscopy. Apoptotic cells are counted as those that appear fluorescently green in the nuclei of insulin positive cells. All nuclei of insulin positive cells were counted and percentage of TUNEL^+ cells was calculated as number of TUNEL positive nuclei divided by the total number of insulin positive beta cells. At least 300 nuclei were counted for each condition. […]

CC1=C(CO)C(=O)O[C@@H]([C@@H](C)[C@H]2CC[C@H]3[C@@H]4C[C@H]5O[C@]56[C@@H](O)C=CC(=O)[C@]6(C)[C@H]4CC[C@]23C)C1 [Withaferin A]
IP-10 and MCP-1 levels within beta cells (mean fluorescent intensity) [1]: near control levels
decrease of mRNA levels of several chemokines [2]: ten-fold or more
IP-10 mean channel fluorescence (IP-10): 7318.94 (+/−78.21)
FITC positive population (apoptosis cells) (islets [3]; 2 μg/mL): small increase
FITC positive population (apoptosis cells) (islets [3]; 4 μg/mL): dramatic increase
percentage of FITC positive population (apoptosis cells) (islets [3]; low Withaferin A dose samples (0.5 and 1 μg/mL)): close to zero
expression level of IL-1β, RANTES, MIG and IP-10 vs cytokine alone ([4]; 1 μg Withaferin A and cytokines, 12, 24, 36 and 48 hour): significantly inhibited
expression of RANTES, IP10, MIG, IL-1β and iNOS ([4]; 0.5, 1, 2 and 4 μg per mL with cytokines): decreased with the increase in Withaferin A concentration
IP10, RANTES and MCP-1 expression upregulated by cytokine treatment [5]: could be inhibited
blood glucose, IPGTT ([6]; 0 minutes, day 30 (vehicle 485±95.4)): 150.3 ± 89.2 mg/dL
blood glucose, IPGTT ([6]; 30 minutes, day 30 (vehicle 523.8±95.3)): 267.8 ± 84.8 mg/dL
islet viability (FDA/PI) (islets [7]; 0.5 μg/mL): not decreased
islet viability (FDA/PI) (islets [7]; 1 μg/mL): not decreased
islet viability (FDA/PI) (islets [7]; 2 μg/mL): slight decrease
islet viability (FDA/PI) (islets [7]; 4 μg/mL): significant loss
inflammatory gene expression, Withaferin A treated group vs control ([8]; Withaferin A alone, no cytokines): no significant difference
inflammatory gene expression, cytokine and Withaferin A group vs cytokine alone group ([8]; human islets, FIG. 1B): significantly down regulated
inhibition of inflammatory gene expression (FIG. 1C) ([8]; human islets, cytokine cocktail + Withaferin A vs cytokine alone, all three donors): 60%-100
viability of mouse islets (mouse islets [9]; 0.25 μg/mL, 48 hours, no cytokines (control 93.8±8.0%)): 90.1±6.6%
viability of mouse islets (mouse islets [9]; 0.5 μg/mL, 48 hours, no cytokines (control 93.8±8.0%)): 94.6±4.4%
viability of mouse islets (mouse islets [9]; 1.0 μg/mL, no cytokines, time not printed (control 97.3±2.2%)): 87.8±11.1%
viability of mouse islets exposed to cytokines (mouse islets [9]; cytokine cocktail + 0.25 μg/mL): 89.7±5.9%
viability of mouse islets exposed to cytokines (mouse islets [9]; cytokine cocktail + 0.5 μg/mL): 89.9±3.6%
optimal Withaferin A dose without toxicity to islets (mouse islets [9]; mouse islets, 24 and 48 hours): 0.5 µg/mL
stimulation index, mouse islets (mouse islets [10]; 0.5 μg/mL, 24 hours, no cytokines (control 11.13±9.28)): 7.05±2.20
stimulation index, mouse islets exposed to cytokines (mouse islets [10]; cytokines with or without Withaferin A, twenty four hours): did not show any significant differences
viability of human islets (human islets [11]; 0.5 μg/mL, 48 hours, no cytokines (control 91.8±7.4%)): 89.0±4.6%
viability of human islets (human islets [11]; 1.0 μg/mL, 48 hours, no cytokines (control 91.8±7.4%)): 91.9±3.5%
viability of human islets (human islets [11]; 2.0 μg/mL, 24 hours, no cytokines (control 94.9±4.5%)): 70.5±8.8%
viability of human islets exposed to cytokines (human islets [11]; cytokine cocktail + 0.5 μg/mL): 92.6±5.1%
viability of human islets exposed to cytokines (human islets [11]; cytokine cocktail + 1.0 μg/mL): 94.6±2.9%
optimal Withaferin A dose without toxicity to islets (human islets [11]; human islets, 24 and 48 hours): 1.0 µg/mL
secreted inflammatory molecules ([12]; 1.0 μg/mL, cytokines, p<0.05): significant decrease
secreted levels of inflammatory cytokines and chemokines ([12]; human islets, cytokines + Withaferin A): decreased secreted levels of each molecule
percent NF-κB+ insulin positive cells ([13]; cytokine cocktail + 0.5 μg/mL): 19.5±8.1%
percent NF-κB+ cells ([13]; cytokine cocktail + 1.0 μg/mL): 10.0±4.1%
intensity of MCP-1 staining and IP-10 staining (MCP-1 and IP-10): decreased the intensity
stimulation index, human islets (human islets [14]; 0.5 μg/mL): 3.52±1.97
Stimulation Index vs control group (human islets [14]; 1 μg/mL Withaferin A, no cytokines (FIG. 4D)): no significant difference
stimulation index, human islets (human islets [14]; 1.0 μg/mL): 4.21±0.41
stimulation index, human islets exposed to cytokines (human islets [14]; cytokines + 1.0 μg/mL, twenty four hours (cytokines 1.59±0.34, control 3.10±1.53)): 2.20±0.61
success rate (recipients achieving normoglycemia) ([15]; 200 islet isograft, 25 μg i.p. daily for 7 days (vehicle 0%)): 83%
mice with amelioration of diabetes / mice treated ([15]; 200 islet isograft, 25 μg i.p. daily for 7 days (vehicle 0/5)): 5/6
ideal dose in the in vivo mouse model ([15]; doses from 2.5 to 50 μg/mouse tested): 25 µg
IκB protein relative to ERK1/2 after cytokine cocktail [16]: prevented the reduction of IκB
cytokine induced β cell apoptosis (TUNEL positive staining) (human β cells): totally cancel any effect of cytokines on β cell apoptosis
